In patent US20240300980A1, “HETEROCYCLIC COMPOUNDS AS KRAS INHIBITOR, AND PREPARATION THEREFOR AND USE THEREOF IN TREATMENT” (SHANGHAI KECHOW PHARMA, INC., priority 2021, published 2024) one finds IC50 data, which are given here for 20 compounds.

SMILES strings stand for the structures.

Broadly, the IC50 is the concentration that inhibits the measured activity by half.

The assay deals with AGS cells (KRAS^G12D). In words: Detection of cell proliferation in vitro by MTT/MTS method (cell activity experiment). The class given is cell-based. The conditions noted are these: Homo sapiens, AGS, 72 h, AGS cells; MTT/MTS; 3 days of drug treatment; read-out: AGS IC50. The essentials:
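After 3-day compound exposure (final DMSO 0.5%), viability of AGS (KRAS G12D) cells, plated 1000/well one day before dosing, was measured at 490 nm following 4 h MTT or MTS incubation. IC50 was fitted from dose–effect curves relative to DMSO-treated wells.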
(In general: Formazan colour is commonly taken as a measure of viable cells.)
`CCc1nccc2cc(O)cc(-c3ccc4c(N5C[C@H]6CC[C@@H](C5)N6)nc(OC[C@@]56CCCN5C[C@H](F)C6)nc4c3F)c12` [Example 344, 8-(4-((1R,5S)-3,8-diazabicyclo[3.2.1]octan-3-yl)-8-fluoro-2-(((2R,7aS)-2-fluorotetrahydro-1H-pyrrolizin-7a(5H)-yl)methoxy)quinazolin-7-yl)-1-ethylisoquinolin-6-ol]: the IC50 stood at 35 nM.

On to `C#Cc1c(F)ccc2cc(O)cc(-c3ccc4c(N5CCC(C#N)CC5)nc(OC[C@@]56CCCN5C[C@H](F)C6)nc4c3F)c12` [Example 133, 1-(7-(8-ethynyl-7-fluoro-3-hydroxynaphthalen-1-yl)-8-fluoro-2-(((2R, 7aS)-2-fluorotetrahydro-1H-pyrrolizin-7a(5H)-yl)methoxy)quinazolin-4-yl)piperidine-4-carbonitrile], for which the IC50 is greater than 2500 nM.

`C#Cc1c(F)ccc2cc(O)cc(-c3c(F)c4nc(OC[C@@]56CCCN5C[C@H](F)C6)nc(N5C[C@H]6CC[C@@H](C5)N6)c4c4nccn34)c12` [Example 399, 4-(10-((1R,5S)-3,8-diazabicyclo[3.2.1]octan-3-yl)-6-fluoro-8-(((2R,7aS)-2-fluorotetrahydro-1H-pyrrolizin-7a(5H)-yl)methoxy)imidazo[1′,2′:1,2]pyrido[4,3-d]pyrimidin-5-yl)-5-ethynyl-6-fluoronaphthalen-2-ol]: the IC50 was determined as 65 nM.

Regarding `CCc1c(F)ccc2cc(O)cc(-c3c(F)c4nc(OC[C@@]56CCCN5C[C@H](F)C6)nc(N5C[C@H]6CC[C@@H](C5)N6)c4c4cncn34)c12` [Example 416, 4-(1-((1R,5S)-3,8-diazabicyclo[3.2.1]octan-3-yl)-5-fluoro-3-(((2R,7aS)-2-fluorotetrahydro-1H-pyrrolizin-7a(5H)-yl)methoxy)imidazo[1′,5′:1,2]pyrido[4,3-d]pyrimidin-6-yl)-5-ethyl-6-fluoronaphthalen-2-ol], the IC50 came out at 28 nM.

In the case of `CCc1c(F)ccc2cc(O)cc(-c3ccc4c(N5C[C@H]6CC[C@@H](C5)N6)nc(OC[C@]56CCCN5[C@@H](COC(=O)N(C)C)CC6)nc4c3F)c12` [Example 97, ((3R,7aR)-7a-(((4-((1R,5S)-3,8-diazabicyclo[3.2.1]octan-3-yl)-7-(8-ethyl-7-fluoro-3-hydroxynaphthalen-1-yl)-8-fluoroquinazolin-2-yl)oxy)methyl)hexahydro-1H-pyrrolizin-3-yl) methyl dimethylcarbamate], the IC50 was 18 nM.

Take `C#Cc1c(F)ccc2cc(O)cc(-c3ncc4c(N5CC6CCC(C5)C6SC)nc(OC[C@@]56CCCN5C[C@H](F)C6)nc4c3F)c12` (stereo partly drawn) [Example 64, 5-ethynyl-6-fluoro-4-(8-fluoro-2-(((2R,7aS)-2-fluorotetrahydro-1H-pyrrolizin-7a(5H)-yl)methoxy)-4-((1R,5S, 8R)-8-(methylthio)-3-azabicyclo[3.2.1]octan-3-yl)pyrido[4,3-d]pyrimidin-7-yl) naphthalen-2-ol]: the IC50 was greater than 10000 nM.

Turning to `CCC1CCCc2cc(O)cc(-c3ncc4c(NCC5(N(C)C)CCC5)nc(OC[C@@]56CCCN5C[C@H](F)C6)nc4c3F)c21` (stereo partly drawn) [Example 422, 4-(4-(((1-(dimethylamino)cyclobutyl)methyl)amino)-8-fluoro-2-(((2R,7aS)-2-fluorotetrahydro-1H-pyrrolizin-7a(5H)-yl)methoxy)pyrido[4,3-d]pyrimidin-7-yl)-5-ethyl-5,6,7,8-tetrahydronaphthalen-2-ol], the IC50 turned out to be 35 nM.

Take `Oc1cc2c(c(-c3ncc4c(N5C[C@H]6CC[C@@H](C5)N6)nc(OC[C@@]56CCCN5C[C@H](F)C6)nc4c3F)c1)C(CC(F)(F)F)CC2` (stereo partly drawn) [Example 257, 7-(4-((1R,5S)-3,8-diazabicyclo[3.2.1]octan-3-yl)-8-fluoro-2-(((2R,7aS)-2-fluorotetrahydro-1H-pyrrolizin-7a(5H)-yl)methoxy)pyrido[4,3-d]pyrimidin-7-yl)-1-(2,2,2-trifluoroethyl)-2,3-dihydro-1H-inden-5-ol]: the IC50 turned out to be 1850 nM.

For the compound `CCc1ccc2cc(O)cc(-c3ncc4c(N5C[C@H]6CC[C@@H](C5)N6)nc(OC[C@@]56CCCN5C[C@H](F)C6)nc4c3F)n12` [Example 351, 5-(4-((1R,5S)-3,8-diazabicyclo[3.2.1]octan-3-yl)-8-fluoro-2-(((2R,7aS)-2-fluorotetrahydro-1H-pyrrolizin-7a(5H)-yl)methoxy)pyrido[4,3-d]pyrimidin-7-yl)-3-ethylindolizin-7-ol], the IC50 came to 30 nM.

With `C#Cc1cccc2cc(O)cc(-c3ccc4c(N5CCC6(CC5)CO[C@@H](C)[C@H]6N)nc(OC[C@@]56CCCN5C[C@H](F)C6)nc4c3F)c12` [Example 115, 4-(4-((3S,4S)-4-amino-3-methyl-2-oxa-8-azaspiro[4.5]decan-8-yl)-8-fluoro-2-(((2R, 7aS)-2-fluorotetrahydro-1H-pyrrolizin-7a(5H)-yl)methoxy)quinazolin-7-yl)-5-ethynylnaphthalen-2-ol], the IC50 was greater than 2500 nM.

Take `C#Cc1c(F)ccc2cc(O)cc(-c3ccc4c(N5C[C@H]6CC[C@@H](C5)N6)nc(OC[C@@]56CCCN5C[C@H](F)C6)nc4n3)c12` [Example 140, 4-(4-((1R,5S)-3,8-diazabicyclo[3.2.1]octan-3-yl)-2-(((2R, 7aS)-2-fluorotetrahydro-1H-pyrrolizin-7a(5H)-yl)methoxy)pyrido[2,3-d]pyrimidin-7-yl)-5-ethynyl-6-fluoronaphthalen-2-ol]: the IC50 was greater than 2500 nM.

On to `C#Cc1nccc2cc(O)cc(-c3ncc4c(NCC5(N(C)C)CCC5)nc(OC[C@@]56CCCN5C[C@H](F)C6)nc4c3F)c12` [Example 424, 8-(4-(((1-(dimethylamino)cyclobutyl)methyl)amino)-8-fluoro-2-(((2R,7aS)-2-fluorotetrahydro-1H-pyrrolizin-7a(5H)-yl)methoxy)pyrido[4,3-d]pyrimidin-7-yl)-1-ethynylisoquinolin-6-ol], for which the IC50 worked out at 30 nM.

As for `C#Cc1c(F)ccc2cccc(-c3ccc4c(N5C[C@H]6CC[C@@H](C5)N6)nc(OC[C@]56CCCN5[C@@H](COC(=O)N(C)C)CC6)nc4c3F)c12` [Example 98, ((3R,7aR)-7a-(((4-((1R,5S)-3,8-diazabicyclo[3.2.1]octan-3-yl)-7-(8-ethynyl-7-fluoronaphthalen-1-yl)-8-fluoroquinazolin-2-yl)oxy)methyl)hexahydro-1H-pyrrolizin-3-yl) methyl dimethylcarbamate], the half-inhibitory concentration (IC50) came to 129 nM.

Turning to `C#Cc1c(F)ccc2cc(O)cc(-c3ccc4c(N5CCC6(CCCS6(=O)=O)CC5)nc(OC[C@@]56CCCN5C[C@H](F)C6)nc4c3F)c12` [Example 110, 8-(7-(8-ethynyl-7-fluoro-3-hydroxynaphthalen-1-yl)-8-fluoro-2-(((2R, 7aS)-2-fluorotetrahydro-1H-pyrrolizin-7a(5H)-yl)methoxy)quinazolin-4-yl)-1-thia-8-azaspiro [4.5]decane 1,1-dioxide], the IC50 is greater than 2500 nM.

Turning to `CCc1c(F)ccc2cc(O)cc(-c3ncc4c(N5C[C@H]6CC[C@@H](C5)N6)c(C#N)c(OC[C@@]56CCCN5C[C@H](F)C6)nc4c3F)c12` [Example 192, 4-((1R,5S)-3,8-diazabicyclo[3.2.1]octan-3-yl)-7-(8-ethyl-7-fluoro-3-hydroxynaphthalen-1-yl)-8-fluoro-2-(((2R,7aS)-2-fluorotetrahydro-1H-pyrrolizin-7a(5H)-yl)methoxy)-1,6-naphthyridine-3-carbonitrile], the IC50 is 121 nM.

With `C#Cc1cc2c(N3C[C@H]4CC[C@@H](C3)N4)nc(OC[C@@]34CCCN3C[C@H](F)C4)nc2c(F)c1-c1cc(O)cc2c1C(C)CCC2` (stereo partly drawn) [Example 374, 4-(4-((1R,5S)-3,8-diazabicyclo[3.2.1]octan-3-yl)-6-ethynyl-8-fluoro-2-(((2R,7aS)-2-fluorotetrahydro-1H-pyrrolizin-7a(5H)-yl)methoxy)quinazolin-7-yl)-5-methyl-5,6,7,8-tetrahydronaphthalen-2-ol], the IC50 was 32 nM.

Consider `Oc1cc(C#Cc2ccc3c(N4C[C@H]5CC[C@@H](C4)N5)nc(OC[C@@]45CCCN4C[C@H](F)C5)nc3c2F)c2ccccc2c1` [Example 363, 4-((4-((1R,5S)-3,8-diazabicyclo[3.2.1]octan-3-yl)-8-fluoro-2-(((2R,7aS)-2-fluorotetrahydro-1H-pyrrolizin-7a(5H)-yl)methoxy)quinazolin-7-yl)ethynyl)naphthalen-2-ol], for which the IC50 came out at 753 nM.

Turning to `CC1OCCc2cc(O)cc(-c3c4c(c5c(N6C[C@H]7CC[C@@H](C6)N7)nc(OC[C@@]67CCCN6C[C@H](F)C7)nc5c3F)OCO4)c21` (stereo partly drawn) [Example 392, 8-(9-((1R,5S)-3,8-diazabicyclo[3.2.1]octan-3-yl)-5-fluoro-7-(((2R,7aS)-2-fluorotetrahydro-1H-pyrrolizin-7a(5H)-yl)methoxy)-[1,3]dioxolo[4,5-f]quinazolin-4-yl)-1-methylisochroman-6-ol], the IC50 is 110 nM.

Take `C#Cc1c(F)ccc2cc(O)cc(-c3ncc4c(N5C[C@H]6CC[C@@H](C5)N6)nc(OC[C@@]56CCCN5C[C@H](F)C6)nc4c3OCC(F)(F)F)c12` [Example 333, 4-(4-((1R,5S)-3,8-diazabicyclo[3.2.1]octan-3-yl)-2-(((2R,7aS)-2-fluorotetrahydro-1H-pyrrolizin-7a(5H)-yl)methoxy)-8-(2,2,2-trifluoroethoxy)pyrido[4,3-d]pyrimidin-7-yl)-5-ethynyl-6-fluoronaphthalen-2-ol]: the IC50 was determined as 455 nM.

On to `C#Cc1c(F)ccc2cc(O)cc(-c3ncc4c(N5CCC6(CCCS6)CC5)nc(OC[C@@]56CCCN5C[C@H](F)C6)nc4c3F)c12` [Example 49, 5-ethynyl-6-fluoro-4-(8-fluoro-2-(((2R, 7aS)-2-fluorotetrahydro-1H-pyrrolizin-7a(5H)-yl)methoxy)-4-(1-thia-8-azaspiro[4.5]decan-8-yl)pyrido[4,3-d]pyrimidin-7-yl)naphthalen-2-ol], for which the IC50 was greater than 10000 nM.
